Measured values reported in PMC11606603, “The membrane domains of mammalian adenylyl cyclases are lipid receptors” (eLife, 2024).
Where “and” joins values, the source holds several entries; their conditions need not be identical. Identical values can stand only once.

Tested on: mAC activity in brain cortical membranes
Test: AC assay, Gsα-stimulated brain cortical membranes
Format: biochemical, mouse
Method: hAC sequences were from NCBI were: ADCY1: NM_021116.3; ADCY2: NM_020546.2; ADCY3: NM_004036.4; ADCY4: NM_001198568.2; ADCY5: NM_183357.2; ADCY6: NM_015270.4; ADCY7: NM_001114.4; ADCY8: NM_001115.2; ADCY9: NM_001116.3. Human mAC genes were from GenScript and fitted with a C-terminal FLAG-tag. […] The gene was synthesized by GenScript. HEK293 cells were maintained in Dulbeccos Modified Eagle Medium (DMEM) with 10% fetal bovine serum at 37°C and 5% CO2. Transfection with AC plasmids was with PolyJet (SignaGen, Frederick, MD, USA). Permanent cell lines were generated by selection for 7 days with 600 µg/ml G418 and maintained with 300 µg/ml For membrane preparation, cells were tyrpsinized, collected by centrifugation (3000 × g, 5 min) and lysed and homogenized in 20 mM HEPES, pH 7.5, 1 mM Ethylenediaminetetraacetic acid (EDTA), 2 mM MgCl2, 1 mM Dithiothreitol (DTT), one tablet of cOmplete, EDTA-free (per 50 ml) and 250 mM sucrose by 20 strokes in a potter homogenizer on ice. Debris was removed (5 min at 1000 × g, 0°C), membranes were collected at 100,000 × g, 60 min at 0°C, suspended and stored at −80°C in 20 mM MOPS, pH 7.5, 0.5 mM EDTA, 2 mM MgCl2. […] Three cerebral cortices were dissected and homogenized in 4.5 ml cold 48 mM Tris–HCl, pH 7.4, 12 mM MgC1_2, and 0.1 mM Ethylene glycol-bis(β-aminoethyl ether)-N,N,N′,N′-tetraacetic acid (EGTA) with a Polytron hand disperser (Kinematica AG, Switzerland). […] The pellet was washed once with 5 ml 1 mM KHCO3. The final suspension in 2 ml 1 mM KHCO3 was stored in aliquots at −80°C.
In a volume of 10 μl, AC activities were measured using 1 mM ATP, 2 mM MgCl2, 3 mM creatine phosphate, 60 μg/ml creatine kinase, and 50 mM MOPS pH 7.5. The cAMP assay kit from Cisbio (Codolet, France) was used for detection according to the supplier’s instructions. For each assay, a cAMP standard curve was established. EC50 and IC50 values were calculated by GraphPad Prism version 8.4.3 for Windows, GraphPad Software, San Diego, CA, USA, https://www.graphpad.com .

For CCCCCCCC/C=C\CCCCCCCC(=O)O [Oleic acid, Oleic ((9Z)-octadecenoic) acid], the “enhancement of Gsα-stimulated cAMP formation in cortical membranes” value (20 µM oleic acid) was 1.5 fold, the “mAC activity [%] (100% = 300nM Gsα stimulation), mouse brain cortex” value (from here on “mAC activity [%]”) (Oleic acid 1 µM) was 78% and 93% and 114% and the “mAC activity [%]” value (Oleic acid 3 µM) was 154%. The “mAC activity [%]” value (Oleic acid 6 µM) was 153% and 144%, the “mAC activity [%]” value (Oleic acid 8 µM) was 173% and 146% and 174% and the “mAC activity [%]” value (Oleic acid 10 µM) was 142% and 181%. The “mAC activity [%]” value (Oleic acid 20 µM) was 187% and 161% and 140% and the EC50 (enhancement of 300 nM Gsα-stimulated cAMP formation) was 5 µM.
